Source: paper PMC10562414, “GLP-1R signaling neighborhoods associate with the susceptibility to adverse drug reactions of incretin mimetics” (Nature Communications, 2023)

What was measured:
[1] = target: T1, GLP-1R (Homo sapiens, UniProt P43220); test: ebBRET pathway activation (15 pathways) at the Golgi apparatus (tdrGFP-Giantin); assay type: cell-based; settings: for Efficacy (normalized) / Potency (logEC50) / Emax: Golgi apparatus
[2] = test system: HEK293 cells without GLP-1R (phosphoproteome); test: Phosphoproteomics, untransfected / mock-transfected control cells, 30 min; assay type: cell-based, human; settings: mock transfection, 1 μM, vs vehicle
Method: P values were calculated by a two-sided unpaired t-test.
HEK293 cells (350,000 cells/mL) were transfected in suspension using 3 μg of linear PEI (MW 25,000) per 1 μg of plasmid DNA and seeded onto poly-D-lysine-coated 60 mm dishes at a density of 1,750,000 cells per dish. After a 24-h incubation, cells were washed twice with PBS and placed in starvation media (DMEM with penicillin/streptomycin). After a 48-h incubation, cells were washed twice with HBSS and maintained in the same buffer. […] Cell extracts were prepared as previously described[64]–[66]. In short, 200 μL of the lysis buffer preheated at 95 °C (4% sodium dodecyl sulfate in 50 mM Tris adjusted to pH 8.5) was added to the cells. The samples were then denatured at 95 °C for 10 min, placed on ice and then sonicated using a probe sonicator (3 sec on, 3 sec off pulse, 1 min, 30% amplitude) (Branson). Lysate protein concentration was determined using the Pierce bicinchoninic acid assay kit (Thermo Fisher Scientific) according to the manufacturer’s instructions. The lysates were reduced using 5 mM dithiothreitol for 1 h at room temperature and alkylated using 15 mM iodoacetamide for 1 h at room temperature in the dark. Proteins were precipitated and digested on beads using MagReSyn Amine magnetic beads (ReSyn Biosciences) according to the manufacturer’s instructions. Protein digestion was conducted overnight at 37 °C with lysyl endopeptidase (LysC, Wako) (1:150 LysC/protein, w/w) and trypsin (1:300 trypsin/protein, w/w). 20% TFA, 2 M glycolic acid in 80% ACN were added to the samples at a 1:1 ratio for phosphopeptide enrichment using MagReSyn TiO2 magnetic beads (ReSyn Biosciences) according to the manufacturer’s instructions. The enriched phosphopeptides were dried overnight in a SpeedVac, resuspended into 5% formic acid (FA), desalted using StageTip (Thermo Fisher Scientific) according to the manufacturer’s instructions and dried in a SpeedVac. The experiment was performed in biological triplicates.
All parameters and settings regarding the acquisition of the proteomics data can be found in Supplementary Data 11, 12. For data acquisition, the instrument was set to peptide mode, with a trapping pressure set as low (2mTorr). An EASY-Spray Source (Thermo Fisher Scientific) was used and the column temperature was maintained with the integrated, temperature-controlled heater at 55 °C throughout the experiment. For the data presented in Fig. 5d, the column was heated at 50 °C following the manufacturer’s instructions (IonOpticks).
Acquired raw files were converted to mzML format by MSConvert (version 3.0.21258)[67] applying peak picking of the mass spectra with the vendor-provided algorithm (Thermo Fisher Scientific). The mzML files were analyzed using the FragPipe GUI v18 for both library and DIA search. […] Trypsin with up to 2 missed cleavages was set as digestion enzyme, oxidation of methionine, acetylation of the N-terminus and phosphorylation on serine, threonine and tyrosine (maximal occurrence was set to three) were set as variable modifications. Carbamidomethylation of cysteine residues was set as a fixed modification. Peptide length was restricted to 7 to 50 amino acids, and 500 to 5000 Da. […] DIA files were analyzed by DIA-NN 1.8.1[71], [72] using the previously generated library and monitor-command mode. Peptide quantification was performed based on the fragment elution profiles from the MS2 level (area under the curve). […]

[3] = target: T1, GLP-1R; test: Hierarchical / k-means / fuzzy clustering of GLP-1R agonist signaling profiles (z-scored Emax and EC50, cluster centers)
Source text: Using ebBRET, we extended our pathway profiling to endosomes, the Golgi apparatus and the endoplasmic reticulum. […] In short, positive k-means cluster centers were indicative of high potency or efficacy in a specific pathway and compartment, whereas negative k-means cluster centers could be interpreted as pathways that were underrepresented or not activated by a given drug cluster (Fig. 6c).
Efficacy and potency were extracted from concentration-response curves and aggregated before k-means clustering. b Hierarchical clustering of GLP-1R agonists based on signaling neighborhood profiles. c Cluster centers of distinct drug clusters identified by k-means clustering. Defining cluster features are listed by rank order, and the top and bottom five features are highlighted for each cluster.
represented as z-scores. Pathways that were not activated by GLP-1R upon exposure to ligand
according to efficacy or potency, compartments, and pathways. Pathways that were not activated
by any drug were removed for clarity. c, Heatmap and hierarchical clustering of efficacy for 8
drugs in 15 pathways and 4 cellular compartments. Data are represented as z-scores.

T1 sequence (P43220 24-463): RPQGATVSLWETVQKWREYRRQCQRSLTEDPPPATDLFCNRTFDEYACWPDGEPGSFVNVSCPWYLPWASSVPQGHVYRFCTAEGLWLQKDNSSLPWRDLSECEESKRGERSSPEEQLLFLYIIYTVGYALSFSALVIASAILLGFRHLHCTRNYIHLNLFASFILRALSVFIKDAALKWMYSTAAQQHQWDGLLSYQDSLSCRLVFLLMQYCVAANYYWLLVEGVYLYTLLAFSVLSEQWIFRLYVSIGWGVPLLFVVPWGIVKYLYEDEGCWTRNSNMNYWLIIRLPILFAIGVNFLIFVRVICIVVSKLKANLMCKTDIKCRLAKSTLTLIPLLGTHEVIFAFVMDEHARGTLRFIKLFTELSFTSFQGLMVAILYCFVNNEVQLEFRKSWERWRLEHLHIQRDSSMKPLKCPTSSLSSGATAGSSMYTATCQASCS

For `N#Cc1ccc(COc2cccc(C3CCN(Cc4nc5ccc(C(=O)O)cc5n4C[C@@H]4CCO4)CC3)n2)c(F)c1` [Danuglipron], the “Efficacy (normalized)” value ([1]; GRK2/Gβγ) was 0, the “Potency (logEC50)” value ([1]; GRK2/Gβγ) was 0 and the Emax ([1]; GRK/Gβγ) was 0. For the same molecule, the “Efficacy (normalized)” value ([1]; Gα11) was 0, the Emax ([1]; Gα11) was 0 and the “Potency (logEC50)” value ([1]; Gα11) was 0. For the same molecule, the “Efficacy (normalized)” value ([1]; Gα12) was 0, the Emax ([1]; Gα12) was 0 and the “Potency (logEC50)” value ([1]; Gα12) was 0. The “Efficacy (normalized)” value ([1]; Gα13) was 0, the Emax ([1]; Gα13) was 0 and the “Potency (logEC50)” value ([1]; Gα13) was 0. The “Efficacy (normalized)” value ([1]; Gα14) was 0, the Emax ([1]; Gα14) was 0 and the “Potency (logEC50)” value ([1]; Gα14) was 0. The “Efficacy (normalized)” value ([1]; Gα15) was 0, the Emax ([1]; Gα15) was 0 and the “Potency (logEC50)” value ([1]; Gα15) was 0. The “Efficacy (normalized)” value ([1]; Gαi1) was 0, the Emax ([1]; Gαi1) was 0 and the “Potency (logEC50)” value ([1]; Gαi1) was 0. The “Efficacy (normalized)” value ([1]; Gαi2) was 0, the Emax ([1]; Gαi2) was 0 and the “Potency (logEC50)” value ([1]; Gαi2) was 0. For the same molecule, the “Efficacy (normalized)” value ([1]; Gαi3) was 0, the Emax ([1]; Gαi3) was 0 and the “Potency (logEC50)” value ([1]; Gαi3) was 0. For the same molecule, the “Efficacy (normalized)” value ([1]; GαoA) was 0, the Emax ([1]; GαoA) was 0 and the “Potency (logEC50)” value ([1]; GαoA) was 0. For the same molecule, the “Efficacy (normalized)” value ([1]; GαoB) was 0, the Emax ([1]; GαoB) was 0 and the “Potency (logEC50)” value ([1]; GαoB) was 0. For the same molecule, the “Efficacy (normalized)” value ([1]; Gαq) was 0, the Emax ([1]; Gαq) was 0 and the “Potency (logEC50)” value ([1]; Gαq) was 0. The “Efficacy (normalized)” value ([1]; Gαs) was 0.8077, the Emax ([1]; Gαs) was 0.9498 and the “Potency (logEC50)” value ([1]; Gαs) was 0.7638. For the same molecule, the “Efficacy (normalized)” value ([1]; Gαz) was 1, the Emax ([1]; Gαz) was 0.06827 and the “Potency (logEC50)” value ([1]; Gαz) was 0.517. The Emax ([1]; βARR) was 0.7121, the “Efficacy (normalized)” value ([1]; βARR2) was 0.4942 and the “Potency (logEC50)” value ([1]; βARR2) was 0.4339. The “mGs recruitment at the Golgi apparatus, in words” value ([1]; Rluc8-mGs, tdrGFP-Giantin, 60 min, n = 3) was “induced a strong response at the Golgi apparatus”, the “log2.foldchange, EIF3J S11” value ([2]; p 0.0145494, n = 3) was -0.5603 and the “log2.foldchange, VPS51 S18 (peptide ...EAPER)” value ([2]; p 0.168261, n = 3) was -0.2294. The “log2.foldchange, VPS51 S18 (peptide ...EAPERR)” value ([2]; p 0.181448, n = 3) was 0.6501, the “log2.foldchange, VPS51 S10” value ([2]; p 0.364227, n = 3) was 0.2093 and the “log2.foldchange, PABPN1 S19” value ([2]; p 0.447985, n = 3) was 0.07218. For the same molecule, the z-scores [3] was -0.3536, the “drug cluster (hierarchical / k-means)” value ([3]; efficacy and potency, 15 pathways, 4 compartments) was 4 and the “defining cluster features, in words” value ([3]; k-means cluster centers) was “endoplasmic reticulum-localized recruitment of mGs and decreased recruitment of βARR at the plasma membrane”.
